Source: patent US9138434B2, “Octahydrothienoquinoline derivative, pharmaceutical composition comprising derivative, and use of these” (KISSEI PHARMACEUTICAL CO., LTD., priority 2011, dated 2015)

Tests used:
[1] = target: T1, human serotonin 5-HT2B receptor (Homo sapiens, UniProt P41595); test: Stimulating activities on human serotonin 5-HT2B receptor, intracellular calcium in forced expression HEK293 cells; format: cell-based; settings: intracellular calcium (Fluo-4), HEK293 cells transiently expressing human 5-HT2B receptor; mean, n=2; read-out: EC50
T1 construct: expressed in transfected cells; host or cells: HEK293, transient transfection (Lipofectamine 2000)
Method: Identification Test of Stimulating Activities on Human Serotonin 5-HT2B Receptor
The PCR was performed using forward primer depicted as sequence ID No. 4, reverse primer depicted as sequence ID No. 5 and KOD-Plus-Ver.2 (TOYOBO) as template of human brain hippocampus cDNA (Clontech). The PCR product was inserted into a plasmid (pcDNA3.1/V5-His-Topo (registered mark)). The PCR product-inserted plasmid was transformed in E. coli (One Shot TOP10 Chemically Competent). That E. coli was incubated in LB agar medium contained 50 μg/mL ampicillin for a day. A selected colony was incubated in LB medium contained 50 μg/mL ampicillin and PCR product-inserted plasmid was purified with QIAprep Spin Miniprep Kit (QIAGEN).
Mostly confluent HEK293 cells were washed with PBS, followed by exfoliation with 0.05% trypsin-EDTA and the cells were suspended in D-MEM liquid medium (phenol red-free, low glucose, pyruvic acid were contained) containing fetal bovine serum (final concentration: 10%) and GlutaMax (registered mark)I (final concentration: 2 mM). The suspension was scattered at 5×10^4 cells/100 L/well on poly-D-lysine-coated 96-well microplate (BD BioCoat (registered mark)). The scattered cells were cultured in 5% CO2 incubator at 37° C. Human serotonin 5-HT2B receptor expression plasmid was transfected in that cells according to the procedure seeing below.
Human serotonin 5-HT2B receptor expression plasmid and Lipofectamine (registered mark) 2000 (Invitrogen) were diluted to 0.008 g/L and 0.016 g/L each other with OPTI-MEM (registered mark)I Reduced-Serum Medium and incubated at room temperature. After incubation, the human serotonin 5-HT2B receptor exoression plasmid-diluted liquid and Lipofectamine (registered mark) 2000-diluted liquid were mixed at an equal volume and incubated at room temperature to form a complex. The complex was dispensed at 50 μL/well on the cells prepared above. The cells were incubated in 5% CO2 incubator at 37° C. for 2 days. After incubation, the cells were used as human serotonin 5-HT2B receptor forced expression cells for measurement of intracellular calcium concentration.
3) Determination of Stimulating Activities of Human Serotonin 5-HT2B Receptor
The stimulating activities of human serotonin 5-HT2B receptor was determined by measuring of intracellular calcium concentration. The 30 mM dimethyl sulfoxide (DMSO) solution contained test compounds or serotonin hydrochloride (Sigma) as positive control, was diluted with assay buffer ((HBSS), 20 mM HEPES, 1.3 mM calcium chloride, 0.5 mM magnesium chloride and 0.4 mM magnesium sulfate were contained, pH7.4) to appropriate concentration.
The forced expression cells were washed with assay buffer, and 100 μL/well of fluorescent calcium indicator (Fluo-4 NW Calcium Assay Kit) was added and incubated in 5% CO2 incubator at 37° C. After incubation, 50 μL/well of each test compound was added, and the concentration of intracellular calcium was measured as fluorescent signal with FlexStation (registered mark) II (Molecular Devices). The data was analyzed by nonlinear regression and sigmoidal dose-response curve fitting using GraphPad PRISM 4.0, and values of EC50 (concentration of the compound producing half the maximal effect of the compound) were calculated. The data was presented as mean value (n=2).

[2] = system: unilateral 6-OHDA-lesioned hemi-Parkinsonian rats; test: Contralateral rotational behavior in unilateral 6-hydroxydopamine-lesioned hemi-parkinsonian rats; format: in vivo, rat (male Sprague-Dawley); settings: 10 mg/kg oral, fasted rats, observed up to 24 hours, mean
Method: 6-OHDA was dissolved at 2 mg/mL in a physiolosical saline solution containing 0.2% L-ascorbic acid. Desipramine was dissolved at 10 mg/mL in a physiolosical saline solution in a hot-water bath. Apomorphine was dissolved at 0.1 mg/mL in a physiolosical saline solution. […] Test compounds were dissolved in a solution containing 2% DMA, 100 or 200 mol % hydrochloric acid, and 98% of a 0.5% methyl cellulose solution. […] (Eur J Pharmacol, 2000, vol. 408, P. 249-255) with a minor modification. Male Sprague-Dawley rats (6-weeks-old, Charles River Laboratories Japan Inc.) were anaesthetized with intraperitoneal somnopentyl (45 mg/kg) injection and placed in a stereotaxic frame (Narishige). In order to prevent 6-OHDA-induced damage of noradrenergic neurons, desipramine (25 mg/kg) was intraperitoneally injected 30 minutes before the 6-OHDA injection. After the bregma identification via a middle calvarial incision, the skull was drilled using a dental drill at the site of 6-OHDA injection. The lesion was made by injecting 6-OHDA (8 μg in 4 μL at a speed of 1 μL/minute) unilaterally into the left medial forebrain bundle by using a injection cannula (30 gauge needle) connected to a microsyringe (Hamilton) (the lesion coordinates; A/P −2.5 mm, L/M −1.8 mm, and V/D −8.0 mm, from the bregma point and surface of the skull). The cannula was carefully removed from the animal after keeping placed on the lesion site for 5 minutes. The skull was filled its hole with dental cement, disinfected, and the scalp incision was surgically sutured. Animals recovered from anesthesia were housed as usual until the day of the experiment. 3) Determining of Contralateral Rotational Behavior Three weeks after the lesion, rats were tested on the basis of their contralateral rotational behavior (single rotation was defined as a 360° turn) in response to 0.1 mg/kg apomorphine given subcutaneously. For behavioral observation, rats were placed in plastic cylinders of a diameter of 30 cm, and its contralateral rotational behaviors were videotaped and quantified by rat-rotation auto counting system R-RACS (Kissei Wellcom). On the experimental day, animals were fasted overnight, and test compounds were orally administrated at doses of 10 mg/kg. […] Total number of rotations and the duration of the response in experimental period were presented as mean value.

T1 sequence (P41595 whole entry): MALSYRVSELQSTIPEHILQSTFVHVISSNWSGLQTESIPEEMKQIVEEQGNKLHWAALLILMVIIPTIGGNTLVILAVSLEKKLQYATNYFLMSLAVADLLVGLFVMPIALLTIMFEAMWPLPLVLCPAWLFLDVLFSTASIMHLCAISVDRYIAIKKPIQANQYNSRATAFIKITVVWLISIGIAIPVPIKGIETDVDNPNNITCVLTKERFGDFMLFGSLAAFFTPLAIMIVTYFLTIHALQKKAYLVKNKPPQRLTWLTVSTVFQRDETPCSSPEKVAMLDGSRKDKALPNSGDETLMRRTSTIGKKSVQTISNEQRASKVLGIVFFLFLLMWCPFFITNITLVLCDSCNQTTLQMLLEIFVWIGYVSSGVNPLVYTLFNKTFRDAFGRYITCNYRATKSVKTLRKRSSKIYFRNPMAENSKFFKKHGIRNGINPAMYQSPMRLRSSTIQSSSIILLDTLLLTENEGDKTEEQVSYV

Question: With `CCN(C(=O)NCC(CC)(CC)N(C)C)C(=O)[C@@H]1C[C@@H]2Cc3c(sc(N)c3C#N)C[C@H]2N(C)C1` [1-107, 1-{[(4aR,6R,8aR)-2-amino-3-cyano-8-methyl-4H,4aH,5H,6H,7H,8H,8aH,9H-thieno[3,2-g]quinolin-6-yl]carbonyl}-3-[2-(dimethylamino)-2-ethylbutyl]-1-ethylurea] as the compound, how does the EC50 [1] read?
Answer: > 10 µM

Question: What about the “Total number or rotations” value ([2]; contralateral rotations) of the same compound?
Answer: 4033.3

Question: And the Duration ([2]; duration of contralateral rotation response)?
Answer: 1068.3 min
